The assay deals with T1, human NTCP (Homo sapiens, UniProt Q14973).
T1 sequence (Q14973 1-349): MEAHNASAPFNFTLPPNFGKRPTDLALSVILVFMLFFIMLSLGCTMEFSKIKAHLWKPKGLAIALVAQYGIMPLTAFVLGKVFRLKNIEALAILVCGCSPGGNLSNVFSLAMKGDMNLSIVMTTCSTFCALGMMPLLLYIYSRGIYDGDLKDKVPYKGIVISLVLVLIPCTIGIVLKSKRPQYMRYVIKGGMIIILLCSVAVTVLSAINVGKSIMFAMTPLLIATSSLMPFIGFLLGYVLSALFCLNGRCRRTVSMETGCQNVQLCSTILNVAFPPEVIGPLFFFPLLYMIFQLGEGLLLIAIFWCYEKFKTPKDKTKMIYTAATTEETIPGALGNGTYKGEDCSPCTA
The experiment in a line: Screening taurocholate uptake assay (96-well, [14C]taurocholate, 10 µM drug). The settings on record: for B-score functional assay: screening taurocholate uptake, 10 µM drug.

The mark [1] stands for this setting: ranking over the functional and the binding screening assay.
Setting [2] is: combined ranking of functional and binding screening assays.

Where a name gives a salt, the structure may show the parent alone.

For the molecule `CC(C)(C)NCC(O)c1ccc(O)c(CO)c1` (stereo not shown) [Salbutamol], the B-score functional assay is 1.838. Under setting [1], this molecule showed a Ranking score of 275.042. The molecule `CN1C(C(=O)Nc2ccccn2)=C(O)c2sccc2S1(=O)=O` [Tenoxicam] registered a B-score functional assay of 0.141. Also, the Ranking score under setting [2] is 641.502. For the molecule `CC(=O)O[C@H]1C[C@H](O[C@H]2[C@@H](O)C[C@H](O[C@H]3[C@@H](O)C[C@H](O[C@H]4CC[C@@]5(C)[C@H](CC[C@@H]6[C@@H]5C[C@@H](O)[C@]5(C)[C@@H](C7=CC(=O)OC7)CC[C@]65O)C4)O[C@@H]3C)O[C@@H]2C)O[C@H](C)[C@H]1O[C@@H]1O[C@H](CO)[C@@H](O)[C@H](O)[C@H]1O` [Lanatoside C], the B-score functional assay is -0.511. Besides, under setting [2], the Ranking score is recorded as 583.598. For the molecule `CC[C@@]1([C@H]2O[C@H]([C@H]3O[C@@](O)(CO)[C@H](C)C[C@@H]3C)C[C@H]2C)CC[C@H]([C@@]2(C)CC[C@]3(C[C@H](O)[C@@H](C)[C@@H]([C@H](C)[C@H](OC)[C@@H](C)C(=O)[O-])O3)O2)O1.[Na+]` [Monensin sodium salt], the B-score functional assay was -1.407. Under setting [1], this molecule returned a Ranking score of 257.93. The corresponding values for `Cl.OC1CCCCC1N1CCC(c2ccccc2)CC1` (stereo not drawn) [L(-)-vesamicol hydrochloride] are -0.315 and 206.223.

The molecule `COCCCC/C(=N\OCCN)c1ccc(C(F)(F)F)cc1` [Fluvoxamine maleate] registered a B-score functional assay of 0.566. Under setting [2], the Ranking score is recorded as 486.369. The corresponding values for `CN(C)CCC[C@@]1(c2ccc(F)cc2)OCc2cc(C#N)ccc21` [Escitalopram oxalate] are 0.103 and 540.899. In turn, `CC(=O)N(O)CCCCCNC(=O)CCC(=O)N(O)CCCCCNC(=O)CCC(=O)N(O)CCCCCN` [Deferoxamine mesylate] returned a B-score functional assay of -0.936. The molecule also had a Ranking score under setting [1] of 277.171. Molecule `O=c1[nH]c(=O)n(C2CCCO2)cc1F` (stereo not shown) [Tegafur] had a B-score functional assay of -0.939. In addition, the Ranking score under setting [2] worked out at 518.446. Molecule `C=CC1=C(C(=O)O)N2C(=O)[C@@H](NC(=O)/C(=N\OCC(=O)O)c3csc(N)n3)[C@H]2SC1` [Cefixime] had a B-score functional assay of -2.268. Further, under setting [1], the Ranking score came out at 185.952. For the molecule `N=C(N)N/N=C/c1c(Cl)cccc1Cl` [Guanabenz acetate], the B-score functional assay is reported as -1.531. Besides, the Ranking score under setting [2] came out at 467.541. With `CN(C)C(=O)Oc1ccc[n+](C)c1.[I-]` [Pyridostigmine iodide], under setting [2], the Ranking score was 1177.01. For the setting “B-score”, the B-score functional assay came out at 1.154. As for `CNc1ncnc2c1ncn2[C@@H]1O[C@H](CO)[C@@H](O)[C@H]1O` [N6-methyladenosine], the B-score functional assay amounted to 0.107. Besides, the Ranking score under setting [2] came to 568.625. The matching figures for `CCC1(c2cccc(O)c2)CCCCN(C)C1` (stereo not shown) [Meptazinol hydrochloride]: -1.3 and 474.66. Consider `CC(C)OC(=O)C(C)(C)Oc1ccc(C(=O)c2ccc(Cl)cc2)cc1` [Fenofibrate], for which the B-score functional assay is recorded as -0.159. Further, under setting [1], the Ranking score stood at 212.979.

For `CC(=O)Oc1ccccc1C(=O)Nc1ncc([N+](=O)[O-])s1` [Nitazoxanide], the B-score functional assay is listed as -2.727. This molecule also had a Ranking score under setting [1] of 189.082. `c1ccc(C2CN3CCSC3=N2)cc1` (stereo not shown) [Tetramisole hydrochloride] yielded a B-score functional assay of -2.419. Moreover, under setting [1], the Ranking score is 250.531. Turning to `Clc1ccc(CCC(Cn2ccnc2)Sc2c(Cl)cccc2Cl)cc1` (stereo not shown) [Butoconazole nitrate], the B-score functional assay is -3.692. Under setting [1], this molecule had a Ranking score of 196.25.

In turn, `CCOC(=O)O[C@]1(C(=O)OCCl)CC[C@H]2[C@@H]3CCC4=CC(=O)C=C[C@]4(C)[C@H]3[C@@H](O)C[C@@]21C` [Loteprednol etabonate] gave a B-score functional assay of -2.765. Under setting [1], this molecule had a Ranking score of 211.225. The corresponding values for `CS(=O)(=O)OCCCCOS(C)(=O)=O` [Busulfan] are -1.026 and 269.796. In the case of `CNCC(O)c1ccc(OC(=O)C(C)(C)C)c(OC(=O)C(C)(C)C)c1` (stereo not shown) [Dipivefrin hydrochloride], the Ranking score under setting [2] is reported as 1200.98. The same molecule came in with a B-score functional assay (B-score) of 1.926.

Regarding `C=C1CC[C@@]2(O)[C@H]3Cc4ccc(O)c5c4[C@@]2(CCN3CC2CC2)[C@H]1O5` [Nalmefene hydrochloride], the B-score functional assay is reported as 0.055. For the same molecule, the Ranking score under setting [2] is given as 642.564. `CC[N+](C)(CC)CCOC(=O)C1c2ccccc2Oc2ccccc21` [Methantheline bromide] came in with a B-score functional assay of -0.025. Under setting [2], the Ranking score was determined as 536.517. The matching figures for `Cc1c(NC(=O)c2cccnc2)c(=O)n(-c2ccccc2)n1C` [Nifenazone]: 0.488 and 560.079. In turn, `NC(=O)c1ccc[n+]([C@@H]2O[C@H](COP(=O)([O-])OP(=O)(O)OC[C@H]3O[C@@H](n4cnc5c(N)ncnc54)[C@H](O)[C@@H]3O)[C@@H](O)[C@H]2O)c1` [Nadide] displayed a B-score functional assay of 0.371. Also, the Ranking score under setting [2] was determined as 475.971. `CCC(=O)OCC(=O)[C@@]1(OC(=O)CC)[C@H](C)C[C@H]2[C@H]3[C@H]([C@@H](O)C[C@@]21C)[C@@]1(C)C=CC(=O)C=C1C[C@H]3Cl` [Alclometasone dipropionate] returned a B-score functional assay of -2.188. The Ranking score under setting [1] turned out to be 175.417. Consider `Clc1cc(Cl)c(OCC#CI)cc1Cl` [Haloprogin], for which the Ranking score under setting [2] is on record as 1271.5. The molecule also registered a B-score functional assay (B-score) of 4.15. `CNCCc1ccccn1.CS(=O)(=O)O.CS(=O)(=O)O` [Betahistine mesylate] had a B-score functional assay of -5.129. Under setting [1], this molecule showed a Ranking score of 145.348. As for `CCOC(=O)[N-]c1cn(N2CCOCC2)n[o+]1` [Molsidomine], the B-score functional assay stood at 0.63. Further, the Ranking score under setting [2] is 467.403. In turn, `CC(=O)O[C@]1(C(C)=O)CC[C@H]2[C@@H]3C=C(Cl)C4=CC(=O)CC[C@]4(C)[C@H]3CC[C@@]21C` [Chlormadinone acetate] yielded a B-score functional assay of -1.751. Under setting [1], the Ranking score is reported as 87.43. The molecule `COc1cc(C(=O)OCCCN2CCCN(CCCOC(=O)c3cc(OC)c(OC)c(OC)c3)CC2)cc(OC)c1OC.Cl.Cl` [Dilazep dihydrochloride] yielded a B-score functional assay of -0.659. Besides, the Ranking score under setting [2] turned out to be 649.692. As for `Clc1ccccc1C(c1ccccc1)(c1ccccc1)n1ccnc1` [Clotrimazole], the B-score functional assay is recorded as -1.203. The Ranking score under setting [1] is on record as 204.208. On to `CC(C)(C)NCC(O)c1ccccc1Cl` (stereo not shown) [Tulobuterol], for which, under setting [2], the Ranking score was 1214.72. In addition, the B-score functional assay (B-score) was found to be 2.873. The molecule `CN1CCN(C(c2ccccc2)c2ccccc2)CC1.Cl` [Cyclizine hydrochloride] came in with a B-score functional assay of -0.953. The Ranking score under setting [2] stood at 578.424.

The molecule `CC(=O)[C@@]12O[C@](C)(c3ccccc3)O[C@@H]1C[C@H]1[C@@H]3CCC4=CC(=O)CC[C@]4(C)[C@H]3CC[C@@]12C` [Algestone acetophenide] registered a B-score functional assay of -2.799. The molecule further gave a Ranking score under setting [1] of 142.566. `NC(=O)NC1NC(=O)NC1=O` (stereo not shown) [Allantoin] yielded a B-score functional assay of -2.549. This molecule also displayed a Ranking score under setting [1] of 134.967. As for `CNCCC(Oc1ccc(C(F)(F)F)cc1)c1ccccc1` (stereo not shown) [Fluoxetine hydrochloride], under setting [1], the Ranking score is reported as 265.518. The molecule `COc1ccccc1OCC(O)COC(N)=O` (stereo not shown) [Methocarbamol] yielded a B-score functional assay of -0.493. In addition, the Ranking score under setting [2] is given as 504.159.

Molecule `Nc1ccc(S(=O)(=O)Nc2ccc(Cl)nn2)cc1` [Sulfachloropyridazine] returned a B-score functional assay of 0.615. The Ranking score under setting [2] was 530.669. Molecule `C[C@]12C=CC(=O)C=C1CC[C@@H]1[C@@H]2[C@@H](O)C[C@@]2(C)[C@H]1CC[C@]2(O)C(=O)CO` [Prednisolone] came in with a B-score functional assay of -0.52. In addition, the Ranking score under setting [2] is 486.999. `CN(C(=O)C(Cl)Cl)c1ccc(OC(=O)c2ccco2)cc1` [Diloxanide furoate]: the Ranking score under setting [2] is listed as 1159.98. The molecule further came in with a B-score functional assay (B-score) of 1.688. `C#C[C@]1(O)CC[C@H]2[C@@H]3CCc4cc(OC)ccc4[C@H]3CC[C@@]21C` [Ethynylestradiol 3-methyl ether] returned a B-score functional assay of -0.011. In addition, under setting [2], the Ranking score is 552.584.

The molecule `CCCCc1cc2ccccc2c(OCCN(C)C)n1` [Dimethisoquin hydrochloride] came in with a B-score functional assay of -0.419. This molecule also yielded a Ranking score under setting [1] of 238.967. The molecule `NC(=O)C[S+]([O-])C(c1ccccc1)c1ccccc1` (stereo not shown) [Modafinil] yielded a B-score functional assay of 2.253. In addition, the Ranking score under setting [2] is recorded as 485.699. `C[C@@H](O[C@H]1OCCN(Cc2n[nH]c(=O)[nH]2)[C@H]1c1ccc(F)cc1)c1cc(C(F)(F)F)cc(C(F)(F)F)c1` [Aprepitant] registered a B-score functional assay of -3.7. Also, the Ranking score under setting [1] was found to be 111.812. In turn, `CN(C)CCOc1ccc(/C(=C(/CCCl)c2ccccc2)c2ccccc2)cc1` [Toremifene] displayed a B-score functional assay of 0.057. Besides, the Ranking score under setting [2] was found to be 537.181.

Source of the values: article PMC5681660, “Reduced hepatitis B and D viral entry using clinically applied drugs as novel inhibitors of the bile acid transporter NTCP” (Scientific Reports, 2017).
